Measured values reported in publication PMC4677828 (Combinatorial chemistry & high throughput screening, 2015).

Tests used:
Format in all cases: biochemical
HDAC1 = HDAC1 (Homo sapiens, UniProt Q13547); test: single-concentration inhibition assay; conditions: 100 μM inhibitor
HDAC2 = HDAC2 (Homo sapiens, UniProt Q92769); test: fluorogenic HDAC assay; conditions: 5 μL of 200 μM HDAC substrate in 50 μL; 30 min pre-incubation; 37 °C; BSA
HDAC6 = target: T1, HDAC6 (Homo sapiens, UniProt Q9UBN7); test: single-concentration inhibition assay; conditions: 100 μM inhibitor
T1 sequence (Q9UBN7 1-1215): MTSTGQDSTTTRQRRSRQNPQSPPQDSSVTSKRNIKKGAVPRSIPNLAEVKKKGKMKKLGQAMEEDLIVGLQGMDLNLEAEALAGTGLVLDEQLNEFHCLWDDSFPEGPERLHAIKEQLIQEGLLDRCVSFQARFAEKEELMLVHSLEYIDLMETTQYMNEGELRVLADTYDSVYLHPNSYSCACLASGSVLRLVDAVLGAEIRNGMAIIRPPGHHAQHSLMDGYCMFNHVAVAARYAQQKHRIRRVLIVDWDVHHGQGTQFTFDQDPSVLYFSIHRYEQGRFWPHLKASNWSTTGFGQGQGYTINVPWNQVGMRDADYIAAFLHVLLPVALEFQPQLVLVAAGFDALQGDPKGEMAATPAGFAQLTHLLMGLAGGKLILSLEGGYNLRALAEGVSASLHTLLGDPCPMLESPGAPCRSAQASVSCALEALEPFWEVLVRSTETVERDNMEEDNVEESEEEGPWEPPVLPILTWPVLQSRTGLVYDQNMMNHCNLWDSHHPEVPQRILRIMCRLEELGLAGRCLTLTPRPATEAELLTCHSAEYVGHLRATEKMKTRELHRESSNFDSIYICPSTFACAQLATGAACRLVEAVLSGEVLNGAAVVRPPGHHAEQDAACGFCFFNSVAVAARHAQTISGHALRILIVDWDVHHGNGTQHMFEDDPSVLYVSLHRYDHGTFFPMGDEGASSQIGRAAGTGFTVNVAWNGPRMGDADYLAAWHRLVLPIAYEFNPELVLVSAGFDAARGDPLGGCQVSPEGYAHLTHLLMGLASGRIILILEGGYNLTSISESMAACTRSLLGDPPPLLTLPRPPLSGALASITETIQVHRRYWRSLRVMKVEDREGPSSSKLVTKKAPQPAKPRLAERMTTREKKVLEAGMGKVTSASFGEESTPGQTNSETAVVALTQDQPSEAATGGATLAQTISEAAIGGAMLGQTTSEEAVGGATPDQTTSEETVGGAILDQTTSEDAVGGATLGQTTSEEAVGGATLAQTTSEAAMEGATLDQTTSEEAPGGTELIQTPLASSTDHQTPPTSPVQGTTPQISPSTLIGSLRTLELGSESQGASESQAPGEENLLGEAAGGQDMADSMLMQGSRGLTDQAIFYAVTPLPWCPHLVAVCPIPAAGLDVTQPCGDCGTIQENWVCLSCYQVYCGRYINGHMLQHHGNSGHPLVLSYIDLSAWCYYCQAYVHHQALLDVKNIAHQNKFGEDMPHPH

HDAC2, sequence (Q92769 whole entry): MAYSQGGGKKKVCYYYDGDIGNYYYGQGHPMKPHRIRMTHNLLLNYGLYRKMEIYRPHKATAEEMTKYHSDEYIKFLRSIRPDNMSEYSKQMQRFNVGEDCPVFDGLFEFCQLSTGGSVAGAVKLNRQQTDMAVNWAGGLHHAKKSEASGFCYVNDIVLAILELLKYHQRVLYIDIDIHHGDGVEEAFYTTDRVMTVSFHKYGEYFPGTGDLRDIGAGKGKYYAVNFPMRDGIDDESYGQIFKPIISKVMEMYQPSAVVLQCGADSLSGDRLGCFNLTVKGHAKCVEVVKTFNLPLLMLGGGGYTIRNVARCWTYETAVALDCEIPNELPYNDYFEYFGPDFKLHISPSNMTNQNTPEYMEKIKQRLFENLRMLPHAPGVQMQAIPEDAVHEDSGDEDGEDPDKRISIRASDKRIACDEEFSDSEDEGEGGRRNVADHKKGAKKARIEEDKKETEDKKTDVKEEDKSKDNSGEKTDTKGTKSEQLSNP
HDAC1, sequence (Q13547 whole entry): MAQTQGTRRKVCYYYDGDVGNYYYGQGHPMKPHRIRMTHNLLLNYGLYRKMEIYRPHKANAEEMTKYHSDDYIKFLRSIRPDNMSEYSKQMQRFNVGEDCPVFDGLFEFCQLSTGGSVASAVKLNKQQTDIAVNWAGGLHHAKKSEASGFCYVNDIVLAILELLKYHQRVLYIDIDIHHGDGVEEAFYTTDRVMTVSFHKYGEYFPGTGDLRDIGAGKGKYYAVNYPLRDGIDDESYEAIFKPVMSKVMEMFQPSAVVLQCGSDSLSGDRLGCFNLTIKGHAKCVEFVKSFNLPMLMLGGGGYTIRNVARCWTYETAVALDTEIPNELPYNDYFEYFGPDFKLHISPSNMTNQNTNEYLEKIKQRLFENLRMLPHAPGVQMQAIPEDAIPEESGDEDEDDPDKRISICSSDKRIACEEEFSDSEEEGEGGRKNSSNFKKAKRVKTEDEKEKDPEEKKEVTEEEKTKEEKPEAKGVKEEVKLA

Substance: ST088357
- % inhibition at 100 μM (HDAC1): 86.90%
- IC50 (HDAC2): 16.9 µM
- % inhibition at 100 μM (HDAC6): 34.28%
